Experiments:
MS = experiment: MTT cell viability assay, MS; type: cell-based, human; conditions: Homo sapiens; Table S1, MS; read-out: IC50 (mean ± SD);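 further: MS is a melanocyte cell line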
Excerpt: (§1) Blokhin National Medical Research Center of Oncology (the Ministry of Health of the Russian Federation, Moscow).

HCT116 = experiment: MTT cell viability assay, HCT116; type: cell-based, human; conditions: Homo sapiens, HCT-116; Table S1, HCT116; read-out: IC50 (mean ± SD)
Excerpt: as §1

HBL-100/Dox = experiment: MTT cell viability assay, HBL-100/Dox; type: cell-based, human; conditions: Homo sapiens, HBL-100; read-out: IC50 (mean ± SD)
Protocol: (§2) The cells were cultured in a humidified CO2 incubator (model 460-CE; Thermo Fisher Scientific, Waltham, MA, USA) at +37 °C and 5% CO2.
(§3) The percentage of the viable cells was calculated according to the following equation: cell viability (%) = 100 × (mean absorbance in the treatment group/mean absorbance in the control group). The results were expressed pictorially using Prism 6.0 (GraphPad Software, Boston, MA, USA).

MCF-7 = experiment: MTT cell viability assay, MCF-7; type: cell-based, human; conditions: Homo sapiens, MCF7; Table S1, MCF-7; read-out: IC50 (mean ± SD)
Excerpt: as §1

HEK293 = experiment: MTT cell viability assay, HEK293; type: cell-based; conditions: Homo sapiens; Table S1, HEK293; read-out: IC50 (mean ± SD)
Excerpt: as §1

HEpG2 = experiment: MTT cell viability assay, HEpG2; type: cell-based, human; conditions: Homo sapiens; Table S1, HEpG2; read-out: IC50 (mean ± SD)
Excerpt: as §1

A549 = experiment: MTT cell viability assay, A549; type: cell-based, human; conditions: Homo sapiens; Table S1, A549; read-out: IC50 (mean ± SD)
Excerpt: as §1

HBL-100 = experiment: MTT cell viability assay, HBL-100; type: cell-based, human; conditions: Homo sapiens; Table S1, HBL-100; read-out: IC50 (mean ± SD)
Protocol: as §2, §3

PC-3 = experiment: MTT cell viability assay, PC-3; type: cell-based, human; conditions: Homo sapiens; Table S1, PC-3; read-out: IC50 (mean ± SD)
Excerpt: as §1

RD TE32 = experiment: MTT cell viability assay, RD TE32; type: cell-based, human; conditions: Homo sapiens; Table S1, RD TE32; read-out: IC50 (mean ± SD)
Excerpt: as §1

Structure (SMILES)	IC50 (MS) [µM]	IC50 (HCT116) [µM]	IC50 (HBL-100/Dox) [µM]	IC50 (MCF-7) [µM]	IC50 (HEK293) [µM]	IC50 (HEpG2) [µM]	melting point [°C]	IC50 (A549) [µM]	IC50 (HBL-100) [µM]	IC50 (PC-3) [µM]	IC50 (RD TE32) [µM]
C=C1C=C(C#N)C[C@@]2(C)C1CC[C@]1(C)C2CCC2C3C(C(C)C)CC[C@]3(C(=O)OC)CC[C@]21C (some centres unmarked) [compound 10, 2-Cyano-3,4-seco-3-nor-2,24-cyclolup-2(24),4(23)-dien-28-oic acid methyl ester]	> 100	> 200	> 200	> 100	> 200	> 100	76.6	> 100	> 100	> 100	> 100
C=C(C=O)C1CC[C@]2(C)C(CCC3C4C(C(C)C)CC[C@]4(COC(=O)c4ccccc4)CC[C@]32C)[C@@]1(C)CCC#N (some centres unmarked) [compound 4, 28-Benzoyloxy-2-cyano-3,4-seco-3-norlup-4(23)-en-24-al]	> 100	> 200	> 100	> 200	> 100	> 100	176.5	> 100	> 100	> 100	> 100
COC(=O)[C@]12CCC(C(C)C)C1C1CCC3[C@@]4(C)C[C@@H](C#N)CC(=O)C4CC[C@@]3(C)[C@]1(C)CC2 (some centres unmarked) [compound 17, 2-Cyano-4-oxo-3,4-seco-3,23-dinor-2,24-cyclolup-28-oic acid methyl ester]	> 100	> 100	> 200	> 100	> 100	> 100	220.8	> 100	> 200	> 100	> 100
CC(C)C1CC[C@]2(COC(=O)c3ccccc3)CC[C@]3(C)C(CCC4[C@@](C)(CCC#N)C(C(=O)C(Br)Br)CC[C@]43C)C12 (some centres unmarked) [compound 29, 28-Benzoyloxy-2-cyano-24,24-dibromo-4-oxo-3,4-seco-3,23-dinorlupane]	> 100	> 200	> 200	49 ± 5.33	> 100	> 100	107.7	> 100	> 100	> 100	73.2 ± 5.24
C=C(C=O)C1CC[C@]2(C)C(CCC3C4C(C(C)C)CC[C@]4(C(=O)OC)CC[C@]32C)[C@@]1(C)CCC#N (some centres unmarked) [compound 5, 2-Cyano-3,4-seco-3-norlup-4(23)-en-24-al-28-oic acid methyl ester]	> 100	> 200	> 100	> 200	> 200	> 100	97.3	> 100	> 200	> 100	> 100
C=C1C[C@H](C#N)C[C@@]2(C)C1CC[C@]1(C)C2CCC2C3C(C(C)C)CC[C@]3(C(=O)OC)CC[C@]21C (some centres unmarked) [compound 13, 2-Cyano-3,4-seco-3-nor-2,24-cyclolup-4(23)-en-28-oic acid methyl ester]	> 100	> 100	> 200	> 100	> 200	> 100	177.7	> 100	> 100	> 100	> 100
COC(=O)[C@]12CCC(C(C)C)C1C1CCC3[C@@]4(C)CC(C#N)=C(C)C4CC[C@@]3(C)[C@]1(C)CC2 (some centres unmarked) [compound 23, 2-Cyano-3,4-seco-3,23-dinor-2,4-cyclolup-2(4)-en-28-oic acid methyl ester]	> 100	> 100	> 100	70.2 ± 3.09	> 100	> 200	168.5	> 200	> 100	> 200	> 100

From publication PMC10298530, “Synthesis and Anticancer Activity of A-Ring-Modified Derivatives of Dihydrobetulin” (International Journal of Molecular Sciences, 2023)
